Experimental data reported in PMC11274511, “Synthesis of Substituted 1,2,4-Triazole-3-Thione Nucleosides Using E. coli Purine Nucleoside Phosphorylase” (Biomolecules, 2024).
Like-named read-outs stand apart in the source and are kept apart here.

Columns and labels:
HSV-1/L2/R^ACV = test: microbe, parasite or virus in culture
Experimental: (§1) Herpes simplex virus type 1 (HSV-1) strain L2 was obtained from the State’s collection of viruses at FSBI «N. F. Gamaleya National Research Centre for Epidemiology and Microbiology, Russian Ministry of Health, Russia» («D. I. Ivanovsky Institute of Virology» subdivision).
(§2) Antiviral activity in vitro was measured by the method of the cytopathic effect (CPE) inhibition assay. In 96-well plastic plates with the 24 h generated cell monolayer, 2-fold serial dilutions of the compounds were prepared. Cells infected with MOI of 0.1 PFU/cell were incubated at 37 °C in 5% CO2 atmosphere. […] Antiviral activity was assessed by determining of IC50 and IC95.
(§3) Three controls were used: (1) Toxicity control. Uninfected cells were incubated in the presence of the drug in the same concentration range as in the experiment. (2) Virus control. […] (3) Cell control. Uninfected cell cultures were incubated in the maintenance medium, which contained no drug.

HSV-1/L2(TK+) = test: microbe, parasite or virus in culture
Experimental: as §1, §2, §3

[1] = Cytotoxicity, trypan blue exclusion method; settings: African green monkey
Experimental: (§4) Cytotoxicity was determined quantitatively by the trypan blue exclusion method. […] Negative control wells contained cells with maintenance medium.
(§5) After 72 h of cell culture incubation in the presence of a compound at a known concentration, the culture medium was harvested, the cells were treated with Versene solution, and suspended in the previously removed support medium. The resulting cell suspension was combined with 1% trypan blue solution in a ratio of 1:1. The number of live and stained cells was determined using a Goryaev camera (Minimed, Bryansk, Russia).

Vero E6 cells = test: Cytotoxicity, trypan blue exclusion method; settings: for Reduction of cytotoxicity compared to base 7: ribosylation / deoxyribosylation of base 7
Experimental: as §4, §5

AURORA-A = tested on: AURORA-A; set-up: method as in earlier work; settings: cited from earlier work
c-TAK1 = tested on: c-TAK1; set-up: method as in earlier work; settings: cited from earlier work
[2] = molecular target: T1, E. coli purine nucleoside phosphorylase (PNP) (Escherichia coli, UniProt P0ABP8); test: Test reaction for 2-deoxyriboside synthesis (substrate test, HPLC); format: biochemical; settings: for Deoxyriboside Content, % 1 h / Deoxyriboside Content, % 24 h: 1 mM base, 2 mM 2′-deoxyuridine, 10 mM KH2PO4, pH 7.0, 5.6 units PNP, 1.7 units UP, 50 °C; for Substrate of E. coli PNP (product formation according to HPLC): test reaction with 2′-deoxyuridine, PNP and UP
T1 construct: made in house; host or cells: E. coli ER2566
Experimental: Each reaction mixture (0.25 mL, pH 7.0) contained 1 mM of the tested heterocyclic base, 2 mM 2′-deoxyuridine, 10 mM KH2PO4, and Escherichia coli purine nucleoside phosphorylase (5.6 units) and uridine phosphorylase (1.7 units). An activity unit is the amount (in µmol) of natural product (hypoxanthine or uracil) formed per minute. The reaction mixtures were incubated at 50 °C. Substrate and product quantities were determined using HPLC.
The test reactions contained the tested heterocyclic base, 2′-deoxyuridine, and both enzymes (PNP and UP).

FLT-3 = tested on: FLT-3; set-up: method as in earlier work; settings: cited from earlier work
[3] = Human alphaherpesvirus 1, Vero C1008, 48 h
[4] = Human alphaherpesvirus 1, Vero C1008, 48 h, Strain HSV-1/L2(TK+), Vero E6, MOI 0.1 PFU/cell, 48 h
[5] = Strain HSV-1/L2(TK+), Vero E6, MOI 0.1 PFU/cell, 48 h
[6] = Vero E6 cells, CC50, Vero E6 cells, 72 h, trypan blue
[7] = Vero E6 cells, 72 h, trypan blue
[8] = Strain HSV-1/L2/R^ACV, Vero E6, MOI 0.1 PFU/cell, 48 h

T1 sequence (P0ABP8 2-239): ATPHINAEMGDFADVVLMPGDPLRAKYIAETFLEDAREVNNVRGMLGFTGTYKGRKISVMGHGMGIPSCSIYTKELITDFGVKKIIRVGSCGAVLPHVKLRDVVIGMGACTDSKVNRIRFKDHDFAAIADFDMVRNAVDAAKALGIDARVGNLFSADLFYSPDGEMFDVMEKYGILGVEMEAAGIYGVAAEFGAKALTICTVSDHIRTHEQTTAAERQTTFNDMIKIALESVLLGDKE

CCCCSc1nc(-c2ccccc2)nn1[C@H]1C[C@H](O)[C@@H](CO)O1 [Compound 13, 5-Butylthio-1-(2-deoxy-β-D-ribofuranosyl)-3-phenyl-1,2,4-triazole]
IC50 (HSV-1/L2/R^ACV; [3]): 46.9 ± 1.2 µM
IC95 (HSV-1/L2/R^ACV; [3]): 93.8 ± 2.4 µM
SI (ratio of CC50 to IC50) (HSV-1/L2/R^ACV; Strain HSV-1/L2/R^ACV): 8
IC95 (HSV-1/L2(TK+); [3]): 93.8 ± 2.4 µM
IC50 (HSV-1/L2(TK+); [4]): 23.4 µM
SI (ratio of CC50 to IC50) (HSV-1/L2(TK+); Strain HSV-1/L2(TK+)): 16
IC50 (HSV-1/L2(TK+); [5]): 23.4 ± 0.6 µM
CC50 at 72 h [1, 6]: 364 ± 6 µM
Reduction of cytotoxicity compared to base 7 (Vero E6 cells): 4 times

O=C(CSc1nc(-c2ccccc2)nn1[C@H]1C[C@H](O)[C@@H](CO)O1)c1ccccc1 [Compound 11, 1-(2-Deoxy-β-D-ribofuranosyl)-5-phenacylthio-3-phenyl-1,2,4-triazole]
IC50 (HSV-1/L2/R^ACV; [3]): 149 ± 5.1 µM
IC95 (HSV-1/L2/R^ACV; [3]): 149 ± 5.1 µM
SI (ratio of CC50 to IC50) (HSV-1/L2/R^ACV; Strain HSV-1/L2/R^ACV): 2
IC95 (HSV-1/L2(TK+); [3]): 149 ± 5.1 µM
IC50 (HSV-1/L2(TK+); [4]): 149 ± 5.1 µM
SI (ratio of CC50 to IC50) (HSV-1/L2(TK+); Strain HSV-1/L2(TK+)): 2
CC50 at 72 h [1, 6]: 244 ± 6.2 µM

CCCCSc1n[nH]c(-c2ccccc2)n1 [Compound 7, 3-Butylthio-5-phenyl-1,2,4-triazole]
Activity against kinase AURORA-A (AURORA-A): active
Activity against kinase c-TAK1 (c-TAK1): active
Deoxyriboside Content, % 1 h [2]: 62%
Deoxyriboside Content, % 24 h [2]: 41%
Substrate of E. coli PNP (product formation according to HPLC) [2]: product’s formation was observed
Activity against kinase FLT-3 (FLT-3): active
IC50 (HSV-1/L2/R^ACV; [3]): 67 ± 0.8 µM
IC95 (HSV-1/L2/R^ACV; [3]): > 67 µM
SI (ratio of CC50 to IC50) (HSV-1/L2/R^ACV; Strain HSV-1/L2/R^ACV): 1
IC95 (HSV-1/L2(TK+); [3]): > 67 µM
IC50 (HSV-1/L2(TK+); [4]): 33.5 µM
SI (ratio of CC50 to IC50) (HSV-1/L2(TK+); Strain HSV-1/L2(TK+)): 3
IC50 (HSV-1/L2(TK+); [5]): 33.5 ± 0.4 µM
CC50 at 72 h [1, 6]: 91.1 µM
Increase of toxicity compared to base 4 (Vero E6 cells; CC50 91.07 vs. 5642.39 µM): 62 fold
CC50 (Vero E6 cells; [7]): 0.0911 ± 0.0007 mM

5-Phenyl-1,2,4-triazole-3-thione [Compound 4]
Deoxyriboside Content, % 1 h [2]: 0%
Deoxyriboside Content, % 24 h [2]: 0%
Substrate of E. coli PNP (product formation according to HPLC) [2]: did not prove to be substrates
IC50 (HSV-1/L2/R^ACV; [8]): 2821 ± 25.4 µM
IC95 (HSV-1/L2/R^ACV; [8]): >5642.4 µM
IC50 (HSV-1/L2(TK+); [5]): 2821 ± 25.4 µM
IC95 (HSV-1/L2(TK+); [5]): >5642.4 µM
CC50 (Vero E6 cells): > 5.64 mM
CC50 (Vero E6 cells; [7]): > 5.64 mM

O=C(CSc1nnc[nH]1)c1ccccc1 [Compound 5, 3-Phenacylthio-1,2,4-triazole]
Deoxyriboside Content, % 1 h [2]: 94%
Deoxyriboside Content, % 24 h [2]: 25%
Substrate of E. coli PNP (product formation according to HPLC) [2]: product’s formation was observed
IC50 (HSV-1/L2/R^ACV; [3]): 570.1 ± 5.1 µM
IC95 (HSV-1/L2/R^ACV; [3]): 2280 ± 20.5 µM
SI (ratio of CC50 to IC50) (HSV-1/L2/R^ACV; Strain HSV-1/L2/R^ACV): 6
IC95 (HSV-1/L2(TK+); [3]): 2280 ± 20.5 µM
IC50 (HSV-1/L2(TK+); [4]): 570.1 ± 5.1 µM
SI (ratio of CC50 to IC50) (HSV-1/L2(TK+); Strain HSV-1/L2(TK+)): 6
CC50 at 72 h [1, 6]: 3346 ± 26.5 µM

NC(=O)c1ncn([C@@H]2O[C@H](CO)[C@@H](O)[C@H]2O)n1 [Ribavirin, reference compound]
IC50 (HSV-1/L2/R^ACV; [3]): 1020 ± 39.9 µM
IC95 (HSV-1/L2/R^ACV; [3]): > 2050 µM
IC95 (HSV-1/L2(TK+); [3]): > 2050 µM
IC50 (HSV-1/L2(TK+); [4]): 512 ± 20 µM
CC50 at 72 h [1]: > 2050 µM

O=C(CSc1nc(-c2ccccc2)nn1[C@@H]1O[C@H](CO)[C@@H](O)[C@H]1O)c1ccccc1 [Compound 10, 5-Phenacylthio-3-phenyl-1-(β-D-ribofuranosyl)-1,2,4-triazole]
IC50 (HSV-1/L2/R^ACV; [3]): 305 ± 8.8 µM
IC95 (HSV-1/L2/R^ACV; [3]): 305 ± 8.8 µM
SI (ratio of CC50 to IC50) (HSV-1/L2/R^ACV; Strain HSV-1/L2/R^ACV): 2
IC95 (HSV-1/L2(TK+); [3]): 305 ± 8.8 µM
IC50 (HSV-1/L2(TK+); [4]): 152 ± 4.4 µM
SI (ratio of CC50 to IC50) (HSV-1/L2(TK+); Strain HSV-1/L2(TK+)): 3
CC50 at 72 h [1, 6]: 480 ± 6.2 µM

CCCCSc1nc(-c2ccccc2)nn1[C@@H]1O[C@H](CO)[C@@H](O)[C@H]1O [Compound 12, 5-Butylthio-3-phenyl-1-(β-D-ribofuranosyl)-1,2,4-triazole]
IC50 (HSV-1/L2/R^ACV; [3]): 188 ± 3.2 µM
IC95 (HSV-1/L2/R^ACV; [3]): 375 ± 6.4 µM
SI (ratio of CC50 to IC50) (HSV-1/L2/R^ACV; Strain HSV-1/L2/R^ACV): 4
IC95 (HSV-1/L2(TK+); [3]): 375 ± 6.4 µM
IC50 (HSV-1/L2(TK+); [4]): 188 ± 3.2 µM
Decrease of antiviral activity compared to base 7 (HSV-1/L2(TK+); IC50 based): 6 fold
SI (ratio of CC50 to IC50) (HSV-1/L2(TK+); Strain HSV-1/L2(TK+)): 4
CC50 at 72 h [1, 6]: 657 µM
CC50 (Vero E6 cells; [7]): 0.657 ± 0.0139 mM
Reduction of cytotoxicity compared to base 7 (Vero E6 cells): more than 7 times

O=C(CSc1ncn([C@@H]2O[C@H](CO)[C@@H](O)[C@H]2O)n1)c1ccccc1 [Compound 8, 3-Phenacylthio-1-(β-D-ribofuranosyl)-1,2,4-triazole]
IC50 (HSV-1/L2/R^ACV; [3]): 379 ± 11.4 µM
IC95 (HSV-1/L2/R^ACV; [3]): 3030 ± 91.5 µM
SI (ratio of CC50 to IC50) (HSV-1/L2/R^ACV; Strain HSV-1/L2/R^ACV): >8
IC95 (HSV-1/L2(TK+); [3]): 1520 ± 45.8 µM
IC50 (HSV-1/L2(TK+); [4]): 379 ± 11.4 µM
SI (ratio of CC50 to IC50) (HSV-1/L2(TK+); Strain HSV-1/L2(TK+)): >8
CC50 at 72 h [1, 6]: > 3030 µM

O=C(CSc1ncn([C@H]2C[C@H](O)[C@@H](CO)O2)n1)c1ccccc1 [Compound 9, 1-(2-Deoxy-β-D-ribofuranosyl)-3-phenacylthio-1,2,4-triazole]
IC50 (HSV-1/L2/R^ACV; [3]): 418 ± 25.9 µM
IC95 (HSV-1/L2/R^ACV; [3]): 835 ± 51.8 µM
SI (ratio of CC50 to IC50) (HSV-1/L2/R^ACV; Strain HSV-1/L2/R^ACV): 2
IC95 (HSV-1/L2(TK+); [3]): 835 ± 51.8 µM
IC50 (HSV-1/L2(TK+); [4]): 418 ± 25.9 µM
SI (ratio of CC50 to IC50) (HSV-1/L2(TK+); Strain HSV-1/L2(TK+)): 2
CC50 at 72 h [1, 6]: 920 ± 77.2 µM

1,2,4-Triazole-3-thione [Compound 3]
Deoxyriboside Content, % 1 h [2]: 0%
Deoxyriboside Content, % 24 h [2]: 0%
Substrate of E. coli PNP (product formation according to HPLC) [2]: did not prove to be substrates
SI (ratio of CC50 to IC50) (HSV-1/L2/R^ACV; Strain HSV-1/L2/R^ACV): 3
IC50 (HSV-1/L2/R^ACV; [8]): 618 ± 3.7 µM
IC95 (HSV-1/L2/R^ACV; [8]): >1236.0 µM
SI (ratio of CC50 to IC50) (HSV-1/L2(TK+); Strain HSV-1/L2(TK+)): 3
IC50 (HSV-1/L2(TK+); [5]): 618 ± 3.7 µM
IC95 (HSV-1/L2(TK+); [5]): >1236.0 µM
CC50 (Vero E6 cells): 1.8857 ± 0.0017 mM
